In publication PMC9986876, “Prediction of Antileishmanial Compounds: General Model, Preparation, and Evaluation of 2-Acylpyrrole Derivatives” (Journal of Chemical Information and Modeling, 2022):

What was measured:
[1] = molecular target: Leishmania donovani Promastigotes; set-up: method as in J. Med. Chem., ( 1991), 34, 9, 2798; conditions: ChEMBL dataset, some flagged Outside typical range, ref J. Med. Chem., ( 1991), 34, 9, 2798, read-out: vij, Ki; cited from earlier work
[2] = tested on: L. amazonensis (MHOM/Br/79/Maria) promastigotes; test: In vitro promastigote susceptibility assay (resazurin); type: cell-based; conditions: for SI (selectivity index, SI = CC50/IC50): CC50 J774 / IC50 L. amazonensis promastigotes; for IC50: Leishmania amazonensis, L. amazonensis promastigotes, 48 h at 26 °C, triplicate, N/A = not active at 100 μg/mL
Method: (§1) The following species of Leishmania were used: L. donovani (MHOM/IN/80/DD8) was purchased (ATCC, USA) and L. amazonensis (MHOM/Br/79/Maria) was kindly provided by Prof. Alfredo Toraño (Instituto de Salud Carlos III, Madrid). Promastigotes were cultured in Schneider’s insect medium supplemented with 10% heat-inactivated fetal bovine serum (FBS) and 1000 U/L of penicillin plus 100 mg/L of streptomycin in 25 mL culture flasks at 26 °C. […] New samples of the compounds have been prepared according to the protocol described above, and subsequently solutions of the chemical compound to be assayed have been dissolved in DMSO at 50 mg/mL. […] Growth control and signal-to-noise control were also included. The final solvent (DMSO) concentrations never exceeded 0.5% (v/v) warranting no effect on parasite proliferation or morphology. After 48 h at 26 °C, 20 μL of a 2.5 mM resazurin solution was added to each well and the plates were returned to the incubator for another 3 h. […] Growth inhibition (%) was calculated by 100 – [(RFU treated wells – RFU signal-to-noise)/(RFU untreated – RFU signal-to-noise) × 100]. All tests were carried out in triplicate. Miltefosine (Sigma-Merck, Madrid, Spain) was used as the reference drug and was evaluated under the same conditions. […] The selectivity index (SI) was calculated as the ratio between cytotoxicity (CC50) and activity against parasites (IC50).

[3] = tested on: L. donovani (MHOM/IN/80/DD8) promastigotes; test: as above; type: cell-based; conditions: for SI (selectivity index, SI = CC50/IC50): CC50 J774 / IC50 L. donovani promastigotes; for IC50: Leishmania donovani, L. donovani promastigotes, 48 h at 26 °C, triplicate, N/A = not active at 100 μg/mL
Method: as §1

[4] = tested on: L. amazonensis amastigotes; test: In vitro intracellular amastigote susceptibility assay in J774 macrophages; type: cell-based; conditions: for IC50: Leishmania amazonensis, L. amazonensis intracellular amastigotes in J774, 48 h, N/A = not active at 100 μg/mL
Method: (§2) The following species of Leishmania were used: L. donovani (MHOM/IN/80/DD8) was purchased (ATCC, USA) and L. amazonensis (MHOM/Br/79/Maria) was kindly provided by Prof. Alfredo Toraño (Instituto de Salud Carlos III, Madrid). Promastigotes were cultured in Schneider’s insect medium supplemented with 10% heat-inactivated fetal bovine serum (FBS) and 1000 U/L of penicillin plus 100 mg/L of streptomycin in 25 mL culture flasks at 26 °C. The assay was carried out as previously described.[29] Briefly, 5 × 10^4 J774 macrophages and stationary promastigotes in a 1:5 ratio were seeded in each well of a microtiter plate, suspended in 200 μL of culture medium, and incubated for 24 h at 33 °C in a 5% CO2 chamber. After this first incubation, the temperature was increased up to 37 °C for another 24 h. Thereafter, cells were washed several times in culture medium by centrifugation at 1.500g for 5 min in order to remove free non-internalized promastigotes. Finally, the supernatant was replaced by 200 μL/well of culture medium containing 2-fold serial dilutions of the test compounds as in promastigotes assay. Growth control and signal-to-noise were also included. Following incubation for 48 h at 37 °C and 5% CO2, the culture medium was replaced by 200 μL/well of the lysis solution (RPMI-1640 with 0.048% HEPES and 0.01% SDS) and incubated at room temperature for 20 min. Thereafter, the plates were centrifuged at 3.500g for 5 min and the lysis solution was replaced by 200 μL/well of Schneider’s insect medium. The culture plates were then incubated at 26 °C for another 4 days to allow transformation of viable amastigotes into promastigotes and proliferation. Afterward, 20 μL/well of 2.5 mM resazurin was added and incubated for another 3 h. Finally, fluorescence emission was measured and IC50 was estimated as described above. All tests were carried out in triplicate. Miltefosine (Sigma-Merck, Madrid, Spain) was used as the reference drug and was evaluated under the same conditions. The IC50 and SI were calculated as in the previous section.

L. donovani amastigotes = test: as above; type: cell-based; conditions: for IC50: Leishmania donovani, L. donovani intracellular amastigotes in J774, 48 h, N/A = not active at 100 μg/mL
Method: as §2, with “Miltefosine (Sigma-Merck, Madrid, Spain) was used as the reference drug and was evaluated under the same conditions.” left out

[5] = Cytotoxicity assay on macrophages (resazurin); type: cell-based, BALB/c mice; conditions: mouse, J774 macrophages, values marked e correspond to 100 μg/mL, the higher dose tested
Method: The assay was carried out as previously described.[30] J774 macrophages cell lines were seeded (5 × 10^4 cells/well) in 96-well flat-bottom microplates with 100 μL of RPMI 1640 medium. The cells were allowed to attach for 24 h at 37 °C and 5% CO2, and the medium was replaced by different concentrations of the compounds in 200 μL of medium and exposed for another 24 h. Growth controls and signal-to-noise were also included. Afterward, a volume of 20 μL of 2.5 mM resazurin solution was added, and plates were returned to the incubator for another 3 h to evaluate cell viability. The reduction of resazurin was determined by fluorometry as in the promastigote assay. Each concentration was assayed three times.

[6] = macrophages J774, 24 h exposure, Table 2
[7] = macrophages J774, Table 3 (amastigote assay table)

Structure (SMILES) | Ki [1] [µM] | SI (selectivity index, SI = CC50/IC50) [2] | IC50 [2] [µM] | SI (selectivity index, SI = CC50/IC50) [3] | IC50 [3] [µM] | SI (selectivity index, SI = CC50/IC50) ([4]; CC50 J774 / IC50 L. amazonensis amastigotes) | IC50 [4] [µM] | SI (selectivity index, SI = CC50/IC50) (L. donovani amastigotes; CC50 J774 / IC50 L. donovani amastigotes) | IC50 (L. donovani amastigotes) | CC50 at 24 h [5, 6] [µM] | CC50 at 24 h [5, 7] [µM]
C=CCCCC(N)C[C@H]1OC(n2cnc3c(N)ncnc32)[C@H](O)[C@@H]1O (stereo partly drawn) [CHEMBL607696] | 877 | – | – | – | – | – | – | – | – | – | –
O=C(c1ccc(Br)cc1)c1cccn1-c1ncccn1 [5af] | – | >4.54 | 67.2 ± 4.94 | >2.58 | 118 ± 25.8 | >1.99 | 153 ± 9.11 | >1.45 | 211 ± 30.3 µM | > 305 | > 305
NCCC(CN)C[C@H]1OC(n2cnc3c(N)ncnc32)[C@H](O)[C@@H]1O (stereo partly drawn) [CHEMBL611866] | 1120 | – | – | – | – | – | – | – | – | – | –
Nc1ncnc2c1ncn2C1O[C@H](C[C@@H](N)CC[C@@H](N)C(=O)O)[C@@H](O)[C@H]1O (stereo partly drawn) [CHEMBL608870] | 49 | – | – | – | – | – | – | – | – | – | –
Cc1cccnc1-n1cccc1C(=O)c1ccc(C(C)(C)C)cc1 [5bc] | – | >10.17 | 30.9 ± 3.11 | >1.42 | 221 ± 36.9 | – | 60.6 ± 7.88 | – | > 100 µg/mL | > 314 | > 314
